Values after ≈ are worked out from the molar mass of the structure shown. Where two headings read alike, the source gives them in different places.
Experiments:
rat plasma = settings: broth microdilution, various concentrations, cited from earlier work
[1] = Serum protein binding estimated from MIC shift, serum vs serum ultrafiltrate (dog); assay type: in vitro ADME; settings: beagle dog serum; from mean MICs, broth microdilution; this study; read-out: % Bound (protein binding estimate) (converted)
Excerpt: (§1) Avid binding of oritavancin (ORI) to filtration and dialysis membranes renders most protein binding methodologies unsuitable. To control for any impact of serum components on bacterial growth and antibiotic activity, MIC shifts (from arithmetic drug dilutions) and area under the inhibitory curve (AUIC) shifts (from time-kill assays) were quantified in the presence of serum (SER) compared to SER ultrafiltrate (ULTRA; free of albumin) to estimate ORI binding to serum. In this manner, the extent of reduction in oritavancin activity in serum was related to its degree of serum protein binding. The method was benchmarked using daptomycin and ceftriaxone (Lee et al., Antimicrob Agents Chemother. 35:2505-2508 (1991); Schmidt et al., Antimicrob Agents Chemother. 52:3994-4000 (2008); Yuk et al., Clin Pharmacokinet. 17:223-235 (1989); McKay et al., Evaluation of oritavancin activity in vitro in the presence of human and mouse serum, abstr P1854. Abstr. 19th European Congress of Clinical Microbiology and Infectious Diseases. European Society of Clinical Microbiology and Infectious Diseases, Basel, Switzerland, May 16, 2009).
(§2) Pooled sera from humans, mice and rats were obtained from Equitech-Bio (Kerrville, Tex.); pooled serum from beagle dogs was from Bioreclamation (Liverpool, N.Y.). ULTRA was prepared using Centricon Plus-50 ultrafilters (Millipore, Billerica, Mass.), whose molecular weight cutoff (50 kDa) excludes albumin. ORI stock solutions were prepared following CLSI M100-818 (Clinical and Laboratory Standards Institute. 2008. CLSI document M100-S18). Staphylococcus aureus ATCC 29213 was used as the test isolate at a final inoculum of ˜5×10^5 CFU/mL in both MIC and AUIC studies.
(§3) Arithmetic MICs: Broth microdilution MIC assays with Staphylococcus aureus ATCC 29213 were based on CLSI guidelines (Clinical and Laboratory Standards Institute, 2009, CLSI document M7-A7). Growth media were 95% serum:5% CAMHB and 95% serum ultrafiltrate:5% CAMHB. […] Percent binding in serum was calculated as follows: % Bound=(1−[mean MICultrafiltrate/mean MICserum]×100%

Albumin = Albumin (Homo sapiens, UniProt P02768); settings: cantilever nanosensor, 0.2 μg/ml, McKendry, unpublished; cited from earlier work
[2] = tested on: exponentially-growing S. aureus (MSSA, MRSA, VRSA); settings: within 15 minutes to 2 hours; against MSSA, MRSA, and VRSA; McKay et al. 2009; cited from earlier work
human serum = settings: broth microdilution, various concentrations, Craig, unpublished; cited from earlier work
S. aureus ATCC 29213 = experiment: Broth microdilution MIC with arithmetic drug dilutions; assay type: cell-based, Staphylococcus aureus; settings: for MIC: Staphylococcus aureus
Description: as §2
Arithmetic MICs: Broth microdilution MIC assays with Staphylococcus aureus ATCC 29213 were based on CLSI guidelines (Clinical and Laboratory Standards Institute, 2009, CLSI document M7-A7). Growth media were 95% serum:5% CAMHB and 95% serum ultrafiltrate:5% CAMHB. Arithmetic dilutions of oritavancin and comparators were used to increase precision of minimum inhibitory concentration (MIC) values relative to doubling dilutions. Percent binding in serum was calculated as follows: % Bound=(1−[mean MICultrafiltrate/mean MICserum]×100%

[3] = Protein binding estimates from time kill-based assays, summary; assay type: in vitro ADME; settings: human, mouse, pooled serum compared with serum ultrafiltrate; this study; summary value
Excerpt: Avid binding of oritavancin (ORI) to filtration and dialysis membranes renders most protein binding methodologies unsuitable. To control for any impact of serum components on bacterial growth and antibiotic activity, MIC shifts (from arithmetic drug dilutions) and area under the inhibitory curve (AUIC) shifts (from time-kill assays) were quantified in the presence of serum (SER) compared to SER ultrafiltrate (ULTRA; free of albumin) to estimate ORI binding to serum. In this manner, the extent of reduction in oritavancin activity in serum was related to its degree of serum protein binding. […]
(§4) AUIC studies: Time-kill studies were performed using S. aureus ATCC 29213 at a final inoculum of 1×10^6 CFU/mL in 95% serum:5% CAMHB and in 95% serum ultrafiltrate:5% CAMHB. […] The AUIC was calculated using GraphPad Prism software. Percent binding in serum was calculated as follows: % Bound=(1−[AUICultrafiltrate/AUICserum]×100%

[4] = Serum protein binding from time-kill AUIC shift, serum vs serum ultrafiltrate (human); assay type: in vitro ADME; settings: pooled human serum compared with serum ultrafiltrate, read-out: Protein binding from area under the bacterial kill curves (converted)
Excerpt: as §1, §2, §4

human plasma [5] = settings: DCC adsorption, 1-91 μg/ml, Rowe and Brown 2001; cited from earlier work
[6] = Serum protein binding estimated from MIC shift, serum vs serum ultrafiltrate (rat); assay type: in vitro ADME; settings: from mean MICs, broth microdilution, this study, read-out: % Bound (protein binding estimate) (converted)
Excerpt: as §1, §2, §3

[7] = Serum protein binding estimated from MIC shift, serum vs serum ultrafiltrate (human); assay type: in vitro ADME; settings: from mean MICs, broth microdilution, this study, read-out: % Bound (protein binding estimate) (converted)
Excerpt: as §1, §2, §3

[8] = Serum protein binding from MIC shift, summary across species; assay type: in vitro ADME, human, mouse, rat, dog; settings: beagle (dog); human, mouse, rat, dog serum; MIC shift; read-out: Mean serum protein binding, range for the four species tested
Excerpt: as §1, §2, §3

serum protein = experiment: as above; assay type: in vitro ADME, human, mouse, rat, dog; settings: cross-species comparative study and concordant data
Excerpt: as §1, §2, §3

human plasma [9] = settings: broth microdilution, various concentrations, Zhanel et al. 1998; cited from earlier work
[10] = Serum protein binding estimated from MIC shift, serum vs serum ultrafiltrate (mouse); assay type: in vitro ADME; settings: mouse serum; from mean MICs, broth microdilution; this study; read-out: % Bound (protein binding estimate) (converted)
Excerpt: as §1, §2, §3

mouse serum = settings: broth microdilution, various concentrations, Craig, unpublished; cited from earlier work
[11] = Serum protein binding from time-kill AUIC shift, serum vs serum ultrafiltrate (mouse); assay type: in vitro ADME; settings: pooled mouse serum compared with serum ultrafiltrate, read-out: Protein binding from area under the bacterial kill curves (converted)
Excerpt: as §1, §2, §4

Sequence of Albumin (P02768 25-609): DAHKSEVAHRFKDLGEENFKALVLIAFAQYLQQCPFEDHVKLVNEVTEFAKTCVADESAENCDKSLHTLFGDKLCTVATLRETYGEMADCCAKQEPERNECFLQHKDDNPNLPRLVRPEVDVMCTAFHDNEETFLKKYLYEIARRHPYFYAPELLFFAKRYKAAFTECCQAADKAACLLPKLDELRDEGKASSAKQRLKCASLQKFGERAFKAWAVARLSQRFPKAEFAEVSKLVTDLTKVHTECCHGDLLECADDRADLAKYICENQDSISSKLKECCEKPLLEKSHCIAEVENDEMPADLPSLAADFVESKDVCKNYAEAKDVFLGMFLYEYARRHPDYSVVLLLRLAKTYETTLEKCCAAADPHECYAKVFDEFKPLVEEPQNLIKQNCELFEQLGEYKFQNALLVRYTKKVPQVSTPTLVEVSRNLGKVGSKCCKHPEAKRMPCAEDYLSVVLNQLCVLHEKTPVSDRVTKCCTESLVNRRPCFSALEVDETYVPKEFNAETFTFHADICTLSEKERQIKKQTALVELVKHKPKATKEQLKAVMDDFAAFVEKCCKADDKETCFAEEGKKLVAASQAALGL

## CN[C@H](CC(C)C)C(=O)N[C@H]1C(=O)N[C@@H](CC(N)=O)C(=O)N[C@H]2C(=O)N[C@H]3C(=O)N[C@H](C(=O)N[C@H](C(=O)O)c4cc(O)cc(O)c4-c4cc3ccc4O)[C@H](O[C@H]3C[C@](C)(N)[C@@H](O)[C@H](C)O3)c3ccc(c(Cl)c3)Oc3cc2cc(c3O[C@@H]2O[C@H](CO)[C@@H](O)[C@H](O)[C@H]2O[C@H]2C[C@](C)(NCc3ccc(-c4ccc(Cl)cc4)cc3)[C@@H](O)[C@H](C)O2)Oc2ccc(cc2Cl)[C@H]1O [Oritavancin, N-(4-(4-chlorophenyl)benzyl)A82846B]
Rat plasma; Zhanel et al. 1998, listed as oritavancin
  Protein Binding: greater than 80%
Rat plasma; Zhanel et al. 1998
  Protein Binding: >80%
[1]
  fraction unbound: 0.129
Albumin
  Protein Binding: 79 ± 0.2%
[2]
  Bactericidal activity, log reduction: ≥ 3 log
Human serum
  Protein Binding: 79.6%
S. aureus ATCC 29213; ATCC29213, read-out: MIC, CAMHB, mean, cation-adjusted Mueller-Hinton broth, CLSI conditions, Dog
  MIC: 0.08 µg/mL (≈ 0.0446 µM)
S. aureus ATCC 29213; ATCC29213, read-out: MIC, CAMHB, mean, cation-adjusted Mueller-Hinton broth, CLSI conditions, Human
  MIC: 0.084 µg/mL (≈ 0.0468 µM)
S. aureus ATCC 29213; ATCC29213, read-out: MIC, CAMHB, mean, cation-adjusted Mueller-Hinton broth, CLSI conditions, Mouse
  MIC: 0.105 µg/mL (≈ 0.0586 µM)
S. aureus ATCC 29213; ATCC29213, read-out: MIC, CAMHB, mean, cation-adjusted Mueller-Hinton broth, CLSI conditions, Rat
  MIC: 0.086 µg/mL (≈ 0.048 µM)
S. aureus ATCC 29213; ATCC29213, read-out: MIC, Serum, mean, 95% dog serum + 5% CAMHB
  MIC: 0.475 µg/mL
S. aureus ATCC 29213; ATCC29213, read-out: MIC, Serum, mean, 95% human serum + 5% CAMHB
  MIC: 0.775 µg/mL
S. aureus ATCC 29213; ATCC29213, read-out: MIC, Serum, mean, 95% mouse serum + 5% CAMHB
  MIC: 0.538 µg/mL
S. aureus ATCC 29213; ATCC29213, read-out: MIC, Serum, mean, 95% rat serum + 5% CAMHB
  MIC: 0.313 µg/mL
S. aureus ATCC 29213; ATCC29213, read-out: MIC, Ultrafiltrate, mean, 95% dog serum ultrafiltrate + 5% CAMHB
  MIC: 0.061 µg/mL
S. aureus ATCC 29213; ATCC29213, read-out: MIC, Ultrafiltrate, mean, 95% human serum ultrafiltrate + 5% CAMHB
  MIC: 0.14 µg/mL
S. aureus ATCC 29213; ATCC29213, read-out: MIC, Ultrafiltrate, mean, 95% mouse serum ultrafiltrate + 5% CAMHB
  MIC: 0.079 µg/mL
S. aureus ATCC 29213; ATCC29213, read-out: MIC, Ultrafiltrate, mean, 95% rat serum ultrafiltrate + 5% CAMHB
  MIC: 0.055 µg/mL
S. aureus ATCC 29213; mean MIC in 95% dog serum / mean MIC in 95% dog serum ultrafiltrate
  Mean Fold MIC Increase: 7.8 fold
S. aureus ATCC 29213; mean MIC in 95% human serum / mean MIC in 95% human serum ultrafiltrate
  Mean Fold MIC Increase: 5.5 fold
S. aureus ATCC 29213; mean MIC in 95% mouse serum / mean MIC in 95% mouse serum ultrafiltrate
  Mean Fold MIC Increase: 6.8 fold
S. aureus ATCC 29213; mean MIC in 95% rat serum / mean MIC in 95% rat serum ultrafiltrate
  Mean Fold MIC Increase: 5.7 fold
[3]
  fraction unbound: ~0.35
[4]; 0.5 μg/ml oritavancin
  fraction unbound at 0.5 μg/ml: 0.326
[4]; 1 μg/ml oritavancin
  fraction unbound at 1 μg/ml: 0.361
[4]; 2 μg/ml oritavancin
  fraction unbound at 2 μg/ml: 0.383
Human plasma [5]
  Protein Binding: 85.7-89.9%
[6]
  fraction unbound: 0.176
[7]
  fraction unbound: 0.181
[8]
  fraction unbound: 0.129 to 0.181
Serum protein
  Bound to serum protein, overall conclusion across species: approximately 85%
Human plasma [9]
  Protein Binding: 87.5%
[10]
  fraction unbound: 0.147
Mouse serum
  Protein Binding: 85.2%
[11]; 0.5 μg/ml oritavancin
  fraction unbound at 0.5 μg/ml: 0.335
[11]; 1 μg/ml oritavancin
  fraction unbound at 1 μg/ml: 0.317
[11]; 2 μg/ml oritavancin
  fraction unbound at 2 μg/ml: 0.312

Reference: patent US9682061B2, “Methods of treating bacterial infections using oritavancin” (THE MEDICINES COMPANY, priority 2009, dated 2017)
